Two compounds from ChEMBL document CHEMBL5303762, “Data for DCP probe BI-8668” (2023) can be followed below.

In data set [1] the target is Histamine H2 receptor (Homo sapiens) (UniProt P25021). The conditions noted are these: Compound concentration 10.0 uM.
Data set [2] addresses Delta-type opioid receptor (Homo sapiens) (UniProt P41143). The conditions noted are these: Compound concentration 10.0 uM.
For data set [3], the target named is T1, Muscarinic acetylcholine receptor M2 (Homo sapiens) (UniProt P08172).
T1 sequence (whole entry): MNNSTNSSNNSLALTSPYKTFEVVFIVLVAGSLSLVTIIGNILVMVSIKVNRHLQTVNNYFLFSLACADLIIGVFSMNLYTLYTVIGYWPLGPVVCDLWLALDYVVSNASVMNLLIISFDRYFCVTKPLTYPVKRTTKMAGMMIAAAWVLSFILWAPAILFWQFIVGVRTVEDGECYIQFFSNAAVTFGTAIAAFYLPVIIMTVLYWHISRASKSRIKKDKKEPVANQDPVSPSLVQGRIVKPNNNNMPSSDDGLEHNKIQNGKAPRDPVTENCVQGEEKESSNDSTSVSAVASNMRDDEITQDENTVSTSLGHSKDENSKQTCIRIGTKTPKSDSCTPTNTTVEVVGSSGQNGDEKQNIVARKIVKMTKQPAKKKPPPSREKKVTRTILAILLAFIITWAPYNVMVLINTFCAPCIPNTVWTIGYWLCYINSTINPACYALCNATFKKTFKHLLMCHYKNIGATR
Kind of data set: M2(H)AGON Eurofins SafetyScreen44 (BI). The note with it: filed as agonist, Compound concentration 10.0 uM.

For data set [4], the target named is D(4) dopamine receptor (Homo sapiens) (UniProt P21917). The conditions noted are these: Compound concentration 10.0 uM.
Chain of D(4) dopamine receptor (Homo sapiens) (P21917 whole entry): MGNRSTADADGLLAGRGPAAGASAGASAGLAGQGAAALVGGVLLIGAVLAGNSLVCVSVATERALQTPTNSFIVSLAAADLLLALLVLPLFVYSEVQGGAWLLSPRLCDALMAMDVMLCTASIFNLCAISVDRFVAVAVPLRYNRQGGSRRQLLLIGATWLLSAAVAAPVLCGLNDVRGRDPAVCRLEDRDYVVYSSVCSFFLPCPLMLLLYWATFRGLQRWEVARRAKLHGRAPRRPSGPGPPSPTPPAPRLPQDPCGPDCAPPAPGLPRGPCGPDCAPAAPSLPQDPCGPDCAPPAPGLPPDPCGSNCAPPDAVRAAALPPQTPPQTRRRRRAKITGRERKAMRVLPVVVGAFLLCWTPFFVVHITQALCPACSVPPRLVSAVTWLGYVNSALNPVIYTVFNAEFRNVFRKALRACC
Data set [5] deals with Kappa-type opioid receptor (Rattus norvegicus) (UniProt P34975). Kind of data set: KAPPA/R Eurofins SafetyScreen44 (BI). The note with it: Compound concentration 10.0 uM.
Data set [6] addresses Beta-3 adrenergic receptor (Homo sapiens) (UniProt P13945). The note with it: Compound concentration 10.0 uM.
For data set [7], the target named is Sodium-dependent dopamine transporter (Homo sapiens) (UniProt Q01959). The note with it: Compound concentration 10.0 uM.
Chain of Sodium-dependent dopamine transporter (Homo sapiens) (Q01959 whole entry): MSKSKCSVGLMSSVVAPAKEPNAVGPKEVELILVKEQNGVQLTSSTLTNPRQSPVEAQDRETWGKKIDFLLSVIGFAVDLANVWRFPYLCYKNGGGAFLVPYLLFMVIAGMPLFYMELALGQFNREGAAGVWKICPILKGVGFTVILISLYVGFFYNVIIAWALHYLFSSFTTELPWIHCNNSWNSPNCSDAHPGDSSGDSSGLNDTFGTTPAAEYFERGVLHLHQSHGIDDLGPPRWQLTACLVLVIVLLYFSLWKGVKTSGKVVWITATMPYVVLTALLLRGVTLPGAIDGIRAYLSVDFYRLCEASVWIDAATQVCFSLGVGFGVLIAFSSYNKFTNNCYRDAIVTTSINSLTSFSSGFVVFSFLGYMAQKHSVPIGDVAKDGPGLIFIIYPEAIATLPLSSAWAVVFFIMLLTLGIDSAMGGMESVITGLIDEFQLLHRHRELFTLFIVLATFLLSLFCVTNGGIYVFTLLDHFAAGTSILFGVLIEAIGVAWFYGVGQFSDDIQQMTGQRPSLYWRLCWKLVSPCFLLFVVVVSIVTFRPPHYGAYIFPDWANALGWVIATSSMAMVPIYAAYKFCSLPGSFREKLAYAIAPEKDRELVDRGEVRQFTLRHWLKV
The target of data set [8] is MAO-A (amine oxidase [flavin-containing] A) (Rattus norvegicus, UniProt P21396). Kind of data set: (§1) MAO-A_ANTAG Eurofins SafetyScreen44 (BI). Also on record: scale not given: the % may be the effect or the level left. The note with it: compound concentration 10 uM, read-out: % Ctrl.
In data set [9] the target is Muscarinic acetylcholine receptor M5 (Homo sapiens) (UniProt P08912). The conditions noted are these: Compound concentration 10.0 uM.
Chain of Muscarinic acetylcholine receptor M5 (Homo sapiens) (P08912 whole entry): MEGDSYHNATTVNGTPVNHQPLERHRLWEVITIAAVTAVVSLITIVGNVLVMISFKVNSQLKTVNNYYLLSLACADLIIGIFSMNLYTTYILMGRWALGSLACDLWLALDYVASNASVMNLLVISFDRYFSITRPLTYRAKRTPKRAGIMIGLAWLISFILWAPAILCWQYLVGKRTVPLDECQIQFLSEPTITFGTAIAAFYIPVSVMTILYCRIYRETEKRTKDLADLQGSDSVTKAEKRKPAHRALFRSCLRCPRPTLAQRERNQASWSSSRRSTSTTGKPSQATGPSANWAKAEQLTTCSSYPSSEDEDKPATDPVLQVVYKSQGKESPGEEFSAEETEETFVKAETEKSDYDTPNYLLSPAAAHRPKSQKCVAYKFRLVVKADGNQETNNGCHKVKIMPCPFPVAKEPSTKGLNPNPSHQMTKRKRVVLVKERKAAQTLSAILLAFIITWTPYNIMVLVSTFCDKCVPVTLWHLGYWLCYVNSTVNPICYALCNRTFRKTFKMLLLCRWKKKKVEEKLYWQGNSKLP
In data set [10] the target is T1, Muscarinic acetylcholine receptor M2 (Homo sapiens). Kind of data set: M2(H)ANTAG Eurofins SafetyScreen44 (BI). The conditions noted are these: filed as antagonist, Compound concentration 10.0 uM.
Data set [11] concerns the target Alpha-2C adrenergic receptor (Homo sapiens) (UniProt P18825). The conditions noted are these: Compound concentration 10.0 uM.
Data set [12] has as its target Histamine H1 receptor (Homo sapiens) (UniProt P35367). The note with it: Compound concentration 10.0 uM.
Data set [13] deals with Sodium-dependent noradrenaline transporter (Homo sapiens) (UniProt P23975). The conditions noted are these: Compound concentration 10.0 uM.
In data set [14] the target is T2, 5-hydroxytryptamine receptor 1A (Homo sapiens) (UniProt P08908).
T2 sequence (whole entry): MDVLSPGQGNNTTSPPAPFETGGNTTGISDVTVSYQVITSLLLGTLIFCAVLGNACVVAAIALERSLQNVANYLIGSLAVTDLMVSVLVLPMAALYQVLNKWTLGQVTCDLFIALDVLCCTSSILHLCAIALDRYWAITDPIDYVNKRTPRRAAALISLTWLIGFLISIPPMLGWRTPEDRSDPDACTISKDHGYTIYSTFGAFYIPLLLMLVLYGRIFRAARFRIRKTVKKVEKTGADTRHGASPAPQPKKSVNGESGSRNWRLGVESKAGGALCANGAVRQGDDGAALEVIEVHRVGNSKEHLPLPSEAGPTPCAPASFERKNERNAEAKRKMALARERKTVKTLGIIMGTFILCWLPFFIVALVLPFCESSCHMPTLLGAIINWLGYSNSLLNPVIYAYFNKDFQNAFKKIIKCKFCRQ
The note with it: Compound concentration 10.0 uM.

In data set [15] the target is Sodium-dependent serotonin transporter (Homo sapiens) (UniProt P31645). The conditions noted are these: Compound concentration 10.0 uM.
Chain of Sodium-dependent serotonin transporter (Homo sapiens) (P31645 whole entry, looked up): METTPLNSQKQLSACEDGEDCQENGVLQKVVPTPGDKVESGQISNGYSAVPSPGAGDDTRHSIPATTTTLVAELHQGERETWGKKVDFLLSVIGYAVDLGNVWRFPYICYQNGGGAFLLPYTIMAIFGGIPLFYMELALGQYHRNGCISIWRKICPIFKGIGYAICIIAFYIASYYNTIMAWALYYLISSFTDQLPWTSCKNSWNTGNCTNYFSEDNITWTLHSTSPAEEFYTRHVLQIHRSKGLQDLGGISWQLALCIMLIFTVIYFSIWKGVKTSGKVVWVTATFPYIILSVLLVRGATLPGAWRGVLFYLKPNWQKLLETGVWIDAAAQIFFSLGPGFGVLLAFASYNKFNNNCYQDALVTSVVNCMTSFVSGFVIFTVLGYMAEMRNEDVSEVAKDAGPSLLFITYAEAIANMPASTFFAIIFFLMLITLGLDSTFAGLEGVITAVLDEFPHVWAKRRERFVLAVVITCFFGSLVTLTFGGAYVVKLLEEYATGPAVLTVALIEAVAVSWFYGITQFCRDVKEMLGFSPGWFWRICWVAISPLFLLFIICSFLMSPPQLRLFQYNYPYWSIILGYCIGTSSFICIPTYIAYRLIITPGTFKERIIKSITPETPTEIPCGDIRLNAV
For data set [16], the target named is Alpha-1B adrenergic receptor (Homo sapiens) (UniProt P35368). The conditions noted are these: Compound concentration 10.0 uM.
Chain of Alpha-1B adrenergic receptor (Homo sapiens) (P35368 whole entry): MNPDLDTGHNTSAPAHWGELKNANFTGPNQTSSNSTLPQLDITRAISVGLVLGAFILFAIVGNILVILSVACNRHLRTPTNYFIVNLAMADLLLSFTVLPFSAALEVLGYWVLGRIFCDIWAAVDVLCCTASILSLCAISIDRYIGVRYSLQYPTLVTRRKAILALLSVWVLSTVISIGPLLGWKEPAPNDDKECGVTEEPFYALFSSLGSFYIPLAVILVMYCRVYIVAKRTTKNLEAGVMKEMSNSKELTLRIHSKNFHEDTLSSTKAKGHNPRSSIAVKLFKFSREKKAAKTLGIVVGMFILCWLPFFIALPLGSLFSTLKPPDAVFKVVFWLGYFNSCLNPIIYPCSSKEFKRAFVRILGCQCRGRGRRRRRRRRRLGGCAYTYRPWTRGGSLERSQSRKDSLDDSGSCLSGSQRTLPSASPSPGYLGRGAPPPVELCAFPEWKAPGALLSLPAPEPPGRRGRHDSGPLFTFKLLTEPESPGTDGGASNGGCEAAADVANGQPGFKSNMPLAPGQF
For data set [17], the target named is Muscarinic acetylcholine receptor M3 (Homo sapiens) (UniProt P20309). Kind of data set: M3(H)AGON Eurofins SafetyScreen44 (BI). The conditions noted are these: filed as agonist, Compound concentration 10.0 uM.
Data set [18] has as its target 5-hydroxytryptamine receptor 2C (Homo sapiens) (UniProt P28335). The note with it: Compound concentration 10.0 uM.
Data set [19] has as its target T3, Alpha-1A adrenergic receptor (Homo sapiens) (UniProt P35348).
T3 sequence (whole entry): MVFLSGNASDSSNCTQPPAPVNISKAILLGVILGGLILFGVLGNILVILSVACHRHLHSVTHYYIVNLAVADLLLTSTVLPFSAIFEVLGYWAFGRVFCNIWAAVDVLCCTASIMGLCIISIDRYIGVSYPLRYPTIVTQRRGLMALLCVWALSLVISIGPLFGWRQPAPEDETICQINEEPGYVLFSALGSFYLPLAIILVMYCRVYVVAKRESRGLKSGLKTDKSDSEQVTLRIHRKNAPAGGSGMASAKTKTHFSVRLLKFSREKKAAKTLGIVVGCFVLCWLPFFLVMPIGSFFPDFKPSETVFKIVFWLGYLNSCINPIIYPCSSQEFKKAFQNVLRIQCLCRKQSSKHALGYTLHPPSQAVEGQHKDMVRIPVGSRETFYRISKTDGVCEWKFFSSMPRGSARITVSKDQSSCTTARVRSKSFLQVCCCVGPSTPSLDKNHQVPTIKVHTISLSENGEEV
Kind of data set: ALPHA1A(H)ANTAG Eurofins SafetyScreen44 (BI). The conditions noted are these: filed as antagonist, Compound concentration 10.0 uM.

Data set [20] deals with Cannabinoid receptor 1 (Homo sapiens) (UniProt P21554). Kind of data set: CB1/CENTR/H Eurofins SafetyScreen44 (BI). The note with it: Compound concentration 10.0 uM.
In data set [21] the target is Amiloride-sensitive sodium channel, ENaC (Mus musculus) (UniProt Q61180+Q9WU38+Q9WU39). Kind of data set: Inhibition of M-1 water resorption. It is filed as functional, cell-based. The conditions noted are these: M1, concentration not given here.
Data set [22] deals with Histamine H3 receptor (Homo sapiens, UniProt Q9Y5N1). The conditions noted are these: Compound concentration 10.0 uM.
Chain of Histamine H3 receptor (Q9Y5N1 whole entry): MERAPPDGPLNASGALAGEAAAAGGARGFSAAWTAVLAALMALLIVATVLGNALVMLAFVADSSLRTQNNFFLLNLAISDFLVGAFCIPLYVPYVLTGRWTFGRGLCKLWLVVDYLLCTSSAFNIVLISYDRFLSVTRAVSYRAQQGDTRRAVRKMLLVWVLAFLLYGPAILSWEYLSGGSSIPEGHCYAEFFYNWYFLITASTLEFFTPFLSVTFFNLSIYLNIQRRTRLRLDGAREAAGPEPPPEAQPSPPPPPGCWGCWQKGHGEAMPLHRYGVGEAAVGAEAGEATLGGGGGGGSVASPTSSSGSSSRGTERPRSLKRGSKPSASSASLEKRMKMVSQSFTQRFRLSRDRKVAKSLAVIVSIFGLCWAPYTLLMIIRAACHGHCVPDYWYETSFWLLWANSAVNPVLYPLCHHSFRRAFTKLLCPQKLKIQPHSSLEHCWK
In data set [23] the target is MAO-A (amine oxidase [flavin-containing] A) (Homo sapiens, UniProt P21397). The description is as §1. Also on record: scale not given: the % may be the effect or the level left. The conditions noted are these: compound concentration 10 uM, read-out: % Ctrl.

Chain of Histamine H2 receptor (Homo sapiens) (P25021 whole entry): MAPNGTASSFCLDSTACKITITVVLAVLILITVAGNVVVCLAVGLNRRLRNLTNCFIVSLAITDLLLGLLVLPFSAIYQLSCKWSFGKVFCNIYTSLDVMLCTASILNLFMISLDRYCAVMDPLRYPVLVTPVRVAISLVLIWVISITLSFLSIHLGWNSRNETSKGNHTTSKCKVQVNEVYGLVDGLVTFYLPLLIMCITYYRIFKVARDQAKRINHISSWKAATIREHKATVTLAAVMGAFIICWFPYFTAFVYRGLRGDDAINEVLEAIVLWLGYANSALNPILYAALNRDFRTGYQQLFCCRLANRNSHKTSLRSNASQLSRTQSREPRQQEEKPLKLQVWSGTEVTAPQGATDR
Chain of Histamine H1 receptor (Homo sapiens) (P35367 whole entry): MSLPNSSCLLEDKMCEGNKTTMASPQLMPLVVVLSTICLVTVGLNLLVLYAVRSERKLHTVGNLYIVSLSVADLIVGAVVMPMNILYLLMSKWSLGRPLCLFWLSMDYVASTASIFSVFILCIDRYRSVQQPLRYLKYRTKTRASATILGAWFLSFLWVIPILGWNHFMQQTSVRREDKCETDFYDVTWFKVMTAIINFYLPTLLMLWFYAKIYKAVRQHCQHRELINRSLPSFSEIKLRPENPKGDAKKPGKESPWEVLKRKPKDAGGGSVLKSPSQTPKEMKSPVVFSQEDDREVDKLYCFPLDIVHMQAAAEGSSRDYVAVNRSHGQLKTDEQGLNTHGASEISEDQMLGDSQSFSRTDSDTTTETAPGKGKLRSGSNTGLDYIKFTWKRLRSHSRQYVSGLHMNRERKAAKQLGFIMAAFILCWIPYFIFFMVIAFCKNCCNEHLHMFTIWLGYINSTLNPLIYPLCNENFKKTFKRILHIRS
Chain of Beta-3 adrenergic receptor (Homo sapiens) (P13945 whole entry, looked up): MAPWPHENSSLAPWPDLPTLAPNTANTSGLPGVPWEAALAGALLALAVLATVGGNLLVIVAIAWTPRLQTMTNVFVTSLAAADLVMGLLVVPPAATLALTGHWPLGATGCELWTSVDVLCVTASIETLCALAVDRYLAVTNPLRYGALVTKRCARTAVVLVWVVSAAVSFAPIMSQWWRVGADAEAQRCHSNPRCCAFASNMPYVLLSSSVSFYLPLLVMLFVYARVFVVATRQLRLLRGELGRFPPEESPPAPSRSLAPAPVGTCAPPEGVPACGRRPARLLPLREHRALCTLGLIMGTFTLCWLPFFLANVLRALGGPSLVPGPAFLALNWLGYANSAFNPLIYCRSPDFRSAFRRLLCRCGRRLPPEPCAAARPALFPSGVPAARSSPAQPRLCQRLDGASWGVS
Chain of 5-hydroxytryptamine receptor 2C (Homo sapiens) (P28335 whole entry): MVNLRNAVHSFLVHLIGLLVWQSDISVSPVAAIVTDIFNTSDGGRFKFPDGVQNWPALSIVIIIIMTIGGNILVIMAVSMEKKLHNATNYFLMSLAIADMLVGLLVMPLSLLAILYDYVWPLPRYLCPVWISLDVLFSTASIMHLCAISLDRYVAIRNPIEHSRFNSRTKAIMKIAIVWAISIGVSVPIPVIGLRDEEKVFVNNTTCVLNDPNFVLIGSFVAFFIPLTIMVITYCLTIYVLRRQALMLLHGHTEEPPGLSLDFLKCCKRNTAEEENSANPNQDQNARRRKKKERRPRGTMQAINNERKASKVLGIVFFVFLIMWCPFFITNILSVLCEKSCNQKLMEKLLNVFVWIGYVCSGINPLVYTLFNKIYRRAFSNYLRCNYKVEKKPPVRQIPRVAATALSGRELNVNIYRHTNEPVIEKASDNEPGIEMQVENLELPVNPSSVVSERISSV

As for `CCn1c(CNC(=O)c2nc(Cl)cnc2N)[n+](CC)c2ccc(C(=O)N(C)CCN(C)C)cc21`, the inhibition (commonly the relative decrease from the control value, in per cent) in [1] is 27.9%; in data set [2], 3.99%; in data set [4], 7.07%; in data set [6] it was -2.81%; in [7], 12.4%; in data set [9] it was 18.7%. Besides, the inhibition in data set [11] is 0.47%; in [12], -1.28%; in [13], -7.54%; in [14], -4.21%; in data set [15], 8.39%; in [16] it was 44.9%. For the same compound, the inhibition is 1.01% in data set [18], 81% in [21] and 85.4% in [22]. The residual activity in [3] was 85.2%; in data set [5], 101%; in [10], 91%; in data set [17], 102%; in [19] it was 89%; in [20] it was 99%. Also, the activity at 10 µM in [8] is 89% (not active).
Consider `CCn1c(CNC(=O)c2ncc(C)nc2N)[n+](CC)c2ccc(C(=O)N(C)CN(C)C)cc21`, for which the activity at 10 µM in data set [23] is 95% (not active).
